We go through three molecules from publication PMC4536990, “Efficacy of the antimicrobial peptide TP4 against Helicobacter pylori infection: in vitro membrane perturbation via micellization and in vivo suppression of host immune responses in a mouse model” (Oncotarget, 2015).

In series [1] the test system is C3H/HeN mice. Description: Dermal toxicity. It is filed as in vivo. The note with it: 48 hr post-exposure, after residue removal; 125 mg/kg TP4 or 20% SDS; n=12 per group. As for the experimental part:
(§1) Figure 11 TP4 toxicity safety evaluations in New Zealand albino rabbits and C3H/HeN mice (A) Eye irritation test: Ocular appearances of controls, and rabbits treated with TP4 or SDS for 7 days. […] (B) Dermal toxicity: appearances of the skin of mice treated with TP4 at 48 hr post-exposure.
(§2) Oral toxicity: Acute oral toxicity was assessed in C3H/HeN mice with 6 animals per group, by single oral administration of TP4 (125 mg/kg). After dose administration, the animals were kept under observation for a minimum of 48 hr. The mortality rate and clinical signs were recorded. Sub-acute oral toxicity was assessed by administering 600 μg dose/day for 14 days. During dose administration, the animals were observed every day for any signs of toxicity. After the treatment period, the animals were kept under observation for 14 days. The morbidity, mortality, and other clinical signs were recorded and assessed. Dermal Toxicity was assessed by topical application of TP4 at 10 times the effective dose to skin at the dorsal side of mice. After administration, the animals were kept under observation for a minimum of 48 h. Clinical signs were noted if the animals were in the morbid stage or presented with any abnormalities. Eye irritation test in New Zealand white rabbits: Healthy young adult rabbits were used in the experiment. Eyes were treated with TP4, PBS (vehicle control), or 0.1% SDS (positive control). A repeated dose of 1 mg/kg was administered every day for 7 days. During the treatment period, the eyes were examined on days 1, 3, 5, and 7, and allowed to recover until day 14. Clinical signs were recorded during the test period, and grades were assigned for ocular reactions observed during each examination. All procedures, care, and handling of rabbits were approved by the laboratory animal ethics committee of National Taiwan Ocean University.

The subject of series [2] is New Zealand white rabbits. The experiment in a line: Eye irritation test in rabbits (OECD 405). It counts as in vivo. As to conditions: for Abnormality iris grade / Chemosis grade / Conjunctivae Redness grade / Corneal opacity grade: OECD 405 grading. As for the experimental part: as §1, §2
Series [3] has as its system H. pylori. The experiment in a line: Induction of drug resistance by sub-inhibitory passaging (in vitro / in vivo passage). It counts as cell-based, Helicobacter pylori. As to conditions: sub-inhibitory doses, 10 serial passages. On the procedure: (§3) Animals were sacrificed at each passage, and the MIC of TP4, amoxicillin, metronidazole, and clarithromycin were recorded for 10 serial passages. Passage points in the curves are means ± SEM. (MICs: standard MIC value; MICp: passage-induced MIC). (B) In vitro dose-OD fall kinetics were examined for TP4 alone and in combination with amoxicillin, metronidazole, or clarithromycin. […] The data shown are means ± SEM of two independent experiments
The drug resistance of bacteria to TP4 and clinical antibiotics was determined by in vitro culturing of H. pylori in sub-inhibitory concentrations of TP4 and antibiotics, followed by repeated in vivo passaging. H. pylori was administered to C3H/HeN mice and allowed to colonize the gut; subsequently pure colonies of H. pylori were isolated on EYE selective media. This step was repeated for 10 passages. During each passage, the MICs of TP4 and the conventional antibiotics were determined. All procedures, care, and handling of mice were approved by the laboratory animal ethics committee of National Taiwan Ocean University.

Series [4] deals with H. pylori CI-HC-028. Description: Time-dependent killing of multidrug resistant clinical isolate. As to conditions: CI-HC-028, at MIC. It is filed as cell-based, Helicobacter pylori. On the procedure:
Control peptide and H. pylori alone were used as controls. The cultures were monitored for 24 h, and aliquots were taken at 1, 3, 6, 12, and 24 h for bacterial enumeration. The data are means ± SEM. […] Approximately, 1 × 10^5 cells were incubated for 1 h, and then incubated with the MIC of TP4, amoxicillin, metronidazole, or clarithromycin (AMOX, METZ, and CLRN, respectively). The cultures were monitored for 24 h, and aliquots taken at 1, 3, 6, 12, and 24 h to determine surviving c.f.u. The data are means ± SEM
Overnight cultures of H. pylori were scraped and adjusted to OD 0.05, and 1 ml/tube inocula were prepared with BHI broth. Solutions of TP4 or clinical antibiotics were prepared with concentrations corresponding to their respective MIC, and PBS was used as a control. The tubes were incubated without shaking at 37°C under microaerophilic conditions, and sample aliquots were taken at 0, 1, 3, 6, 12, and 24 hr. The samples were serially diluted, and appropriate dilutions were plated in triplicate onto blood agar plates for bacterial counts. The results were expressed as mean log (c.f.u. mL^−1) with standard error.

Series [5] deals with metronidazole- and clarithromycin-resistant H. pylori strains. Description: Synergy of TP4 with antibiotics, in vitro dose-OD fall kinetics. It counts as cell-based, Helicobacter pylori. As to conditions: TP4 plus antibiotic. As for the experimental part: as §3
Combination therapy often enhances antibiotic efficacy and mitigates the frequency at which drug resistance emerges. To determine the suitability of TP4 for combination therapy, we examined in vitro dose-OD fall kinetics of TP4 in combination with AMOX, CLRN, or METZ antibiotics; these three antibiotics are traditionally used as the first line of defense against H. pylori.

A value given as a limit tells only on which side of the number the result lay.

In the case of `CCCCCCCCCCCCOS(=O)(=O)[O-].[Na+]` [SDS, reference compound], in series [1], the “skin appearance, lesions” value is listed as “No obvious lesions”. The Abnormality iris grade in series [2] (Day 1) is 0; in series [2] (Day 3), 0; in series [2] (Day 5), 0; in series [2] (Day 7) it was 0; in series [2] (Recovery, Day 14), 0. Besides, the Chemosis grade stood at 1.5 in series [2] (Day 1); 1.5 in series [2] (Day 3); 2 in series [2] (Day 5); 2 in series [2] (Day 7); 1.5 in series [2] (Recovery, Day 14). Moreover, the “Conjunctivae Redness grade” value in series [2] (Day 1) is listed as 1; in series [2] (Day 3) it was 1; in series [2] (Day 5), 1; in series [2] (Day 7), 1; in series [2] (Recovery, Day 14), 0.5. For the same molecule, the Corneal opacity grade in series [2] (Day 1, rabbit eye, daily for 7 days (TP4 1 mg/kg; SDS 0.1%)) is 1; in series [2] (Day 3), 1; in series [2] (Day 5), 1; in series [2] (Day 7) it was 1; in series [2] (Recovery, Day 14), 0.5. For the same molecule, in series [2] (rabbits treated for 7 days, observed daily), the ocular appearance result is “severe lacrimation, swelling of the eyelids, and elevated blood vessels in conjunctivae”.

As to `CC[C@H]1OC(=O)[C@H](C)[C@@H](O[C@H]2C[C@@](C)(OC)[C@@H](O)[C@H](C)O2)[C@H](C)[C@@H](O[C@@H]2O[C@H](C)C[C@H](N(C)C)[C@H]2O)[C@](C)(OC)C[C@@H](C)C(=O)[C@H](C)[C@@H](O)[C@]1(C)O` [clarithromycin], the “drug resistance index MICp/MICs” value in series [3] is recorded as “gradually increased from passage 3 to the last passage”. Further, the “time taken to 90% reduction of c.f.u.” value in series [4] was more than 24 h. Moreover, the “reduction of the MIC of the antibiotic in combination with TP4” value in series [5] is recorded as “one-half”.

Regarding `Cc1ncc([N+](=O)[O-])n1CCO` [metronidazole], the “drug resistance index MICp/MICs” value in series [3] was “gradually increased from passage 3 to the last passage”. In series [4] (24 h), the “course of cell count in time kill” value is given as “initial decrease in cell count, but gradually lost activity”. In addition, the “reduction of the MIC of the antibiotic in combination with TP4” value in series [5] is “one-half”.
